These compounds were tested on MN-60 (assay: selective drug sensitivity score (sDSS, relative to normal bone marrow) (sDSS (score)); higher = more potent and effective on the cell line relative to normal bone marrow cells). Details: 72 h.
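Note: ALL cell lines in 384-well plates, five doses spanning 10,000-fold, each plate scaled between vehicle and 100 µmol/L benzalkonium chloride controls, sDSS an adapted area-under-curve metric.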

| Structure (SMILES) | selective drug sensitivity score |
| --- | --- |
| C/C=C1\NC(=O)[C@H]2CSSCC/C=C/[C@H](CC(=O)N[C@H](C(C)C)C(=O)N2)OC(=O)[C@H](C(C)C)NC1=O [Romidepsin] (top concentration 1000 nM) | -4.94 |
| CN(C)CCOc1ccc(/C(=C(/CCCl)c2ccccc2)c2ccccc2)cc1 [Toremifene] (top concentration 10000 nM) | 0.78 |
| CCCCc1nc2cc(/C=C/C(=O)NO)ccc2n1CCN(CC)CC [Pracinostat] (top concentration 10000 nM) | -1.42 |
| Cn1ncc(Cl)c1-c1cc(C(=O)N[C@H](CN)Cc2cccc(F)c2)sc1Cl [Afuresertib] (top concentration 1000 nM) | -0.54 |
| Cc1cc(-c2nc(-c3ccc(OC(F)(F)F)cc3)no2)nn1Cc1ccnc(N2CCN(C3CC3)CC2)c1 [BAY_87-2243] (top concentration 1000 nM) | 25.6 |
| CNc1nc(-c2ccc3c(N)n[nH]c3c2)cc(N2C[C@@H](C(=O)NC3CCCCC3)CC[C@H]2C)n1 (top concentration 10000 nM) | 2.96 |
| CN1CC[C@H](c2c(O)cc(O)c3c(=O)cc(-c4ccccc4Cl)oc23)[C@H](O)C1 [Alvocidib] (top concentration 10000 nM) | -3.9 |
| Cc1cc2c(C(C)C)c(O)c(O)c(C=O)c2c(O)c1-c1c(C)cc2c(C(C)C)c(O)c(O)c(C=O)c2c1O [AT-101] (top concentration 100000 nM) | 3.28 |
| Cc1ccc(C(=O)Nc2cccc(C(F)(F)F)c2)cc1Nc1nc(-c2cccnc2)nc2c1cnn2C [NVP-BHG712] (top concentration 10000 nM) | 0.68 |
| COC[C@H](NC(=O)c1cnc(C)s1)C(=O)N[C@@H](COC)C(=O)N[C@@H](Cc1ccccc1)C(=O)[C@@]1(C)CO1 [Oprozomib] (top concentration 2500 nM) | -4.3 |
| Cc1ccc(C(=O)N(CCCN)[C@@H](c2oc3cc(Cl)ccc3c(=O)c2Cc2ccccc2)C(C)C)cc1 (top concentration 100 nM) | -1.84 |
| CCn1c(C(=O)N(C2CC2)C2CC2)cc2c3c(ncn3C)c(Nc3cc(C)n(C)n3)nc21 (top concentration 10000 nM) | -4.36 |
| Nc1nc(Cl)nc2c1ncn2[C@@H]1O[C@H](CO)[C@@H](O)[C@@H]1F [Clofarabine] (top concentration 10000 nM) | -7.1 |
| Cc1ccc(C(=O)Nc2ccc(Oc3cc4cnn(C)c4cc3-c3cn[nH]c3)c(F)c2)c(=O)n1-c1ccc(F)cc1 [Merestinib] (top concentration 1000 nM) | 1.38 |
| Nc1ncn([C@@H]2O[C@H](CO)[C@@H](O)[C@H]2O)c(=O)n1 [Azacitidine] (top concentration 10000 nM) | 0.84 |
| CC(C)c1cc(-c2n[nH]c(=O)n2-c2ccc3c(ccn3C)c2)c(O)cc1O [Ganetespib] (top concentration 1000 nM) | -5.06 |
| C[C@]1(c2nc3c(C(N)=O)cccc3[nH]2)CCCN1 [Veliparib] (top concentration 10000 nM) | -3.38 |
| CC(=O)Nc1cccc(-n2c(=O)n(C3CC3)c(=O)c3c(Nc4ccc(I)cc4F)n(C)c(=O)c(C)c32)c1 [Trametinib] (top concentration 250 nM) | -8.04 |

These compounds were tested on MOLT-4 in the same assay as above. Details: 72 h.

| Structure (SMILES) | selective drug sensitivity score |
| --- | --- |
| C/C=C1\NC(=O)[C@H]2CSSCC/C=C/[C@H](CC(=O)N[C@H](C(C)C)C(=O)N2)OC(=O)[C@H](C(C)C)NC1=O [Romidepsin] (top concentration 1000 nM) | 1.76 |
| CN(C)CCOc1ccc(/C(=C(/CCCl)c2ccccc2)c2ccccc2)cc1 [Toremifene] (top concentration 10000 nM) | 2.58 |
| CCCCc1nc2cc(/C=C/C(=O)NO)ccc2n1CCN(CC)CC [Pracinostat] (top concentration 10000 nM) | 3.48 |
| Cn1ncc(Cl)c1-c1cc(C(=O)N[C@H](CN)Cc2cccc(F)c2)sc1Cl [Afuresertib] (top concentration 1000 nM) | 6.26 |
| Cc1cc(-c2nc(-c3ccc(OC(F)(F)F)cc3)no2)nn1Cc1ccnc(N2CCN(C3CC3)CC2)c1 [BAY_87-2243] (top concentration 1000 nM) | 25.1 |
| CNc1nc(-c2ccc3c(N)n[nH]c3c2)cc(N2C[C@@H](C(=O)NC3CCCCC3)CC[C@H]2C)n1 (top concentration 10000 nM) | -0.14 |
| CN1CC[C@H](c2c(O)cc(O)c3c(=O)cc(-c4ccccc4Cl)oc23)[C@H](O)C1 [Alvocidib] (top concentration 10000 nM) | -2.5 |
| Cc1cc2c(C(C)C)c(O)c(O)c(C=O)c2c(O)c1-c1c(C)cc2c(C(C)C)c(O)c(O)c(C=O)c2c1O [AT-101] (top concentration 100000 nM) | 1.98 |
| Cc1ccc(C(=O)Nc2cccc(C(F)(F)F)c2)cc1Nc1nc(-c2cccnc2)nc2c1cnn2C [NVP-BHG712] (top concentration 10000 nM) | 3.08 |
| COC[C@H](NC(=O)c1cnc(C)s1)C(=O)N[C@@H](COC)C(=O)N[C@@H](Cc1ccccc1)C(=O)[C@@]1(C)CO1 [Oprozomib] (top concentration 2500 nM) | 12.6 |
| Cc1ccc(C(=O)N(CCCN)[C@@H](c2oc3cc(Cl)ccc3c(=O)c2Cc2ccccc2)C(C)C)cc1 (top concentration 100 nM) | 1.16 |
| CCn1c(C(=O)N(C2CC2)C2CC2)cc2c3c(ncn3C)c(Nc3cc(C)n(C)n3)nc21 (top concentration 10000 nM) | -3.36 |
| Nc1nc(Cl)nc2c1ncn2[C@@H]1O[C@H](CO)[C@@H](O)[C@@H]1F [Clofarabine] (top concentration 10000 nM) | 3.7 |
| Cc1ccc(C(=O)Nc2ccc(Oc3cc4cnn(C)c4cc3-c3cn[nH]c3)c(F)c2)c(=O)n1-c1ccc(F)cc1 [Merestinib] (top concentration 1000 nM) | -0.62 |
| Nc1ncn([C@@H]2O[C@H](CO)[C@@H](O)[C@H]2O)c(=O)n1 [Azacitidine] (top concentration 10000 nM) | 4.94 |
| CC(C)c1cc(-c2n[nH]c(=O)n2-c2ccc3c(ccn3C)c2)c(O)cc1O [Ganetespib] (top concentration 1000 nM) | 3.14 |
| C[C@]1(c2nc3c(C(N)=O)cccc3[nH]2)CCCN1 [Veliparib] (top concentration 10000 nM) | -2.88 |
| CC(=O)Nc1cccc(-n2c(=O)n(C3CC3)c(=O)c3c(Nc4ccc(I)cc4F)n(C)c(=O)c(C)c32)c1 [Trametinib] (top concentration 250 nM) | -4.54 |

Each compound was assayed on NALL-1 in the same assay as above. Details: 72 h.

| Structure (SMILES) | selective drug sensitivity score |
| --- | --- |
| C/C=C1\NC(=O)[C@H]2CSSCC/C=C/[C@H](CC(=O)N[C@H](C(C)C)C(=O)N2)OC(=O)[C@H](C(C)C)NC1=O [Romidepsin] (top concentration 1000 nM) | 2.06 |
| CN(C)CCOc1ccc(/C(=C(/CCCl)c2ccccc2)c2ccccc2)cc1 [Toremifene] (top concentration 10000 nM) | 8.98 |
| CCCCc1nc2cc(/C=C/C(=O)NO)ccc2n1CCN(CC)CC [Pracinostat] (top concentration 10000 nM) | 3.18 |
| Cn1ncc(Cl)c1-c1cc(C(=O)N[C@H](CN)Cc2cccc(F)c2)sc1Cl [Afuresertib] (top concentration 1000 nM) | -2.34 |
| Cc1cc(-c2nc(-c3ccc(OC(F)(F)F)cc3)no2)nn1Cc1ccnc(N2CCN(C3CC3)CC2)c1 [BAY_87-2243] (top concentration 1000 nM) | 0.04 |
| CNc1nc(-c2ccc3c(N)n[nH]c3c2)cc(N2C[C@@H](C(=O)NC3CCCCC3)CC[C@H]2C)n1 (top concentration 10000 nM) | -0.14 |
| CN1CC[C@H](c2c(O)cc(O)c3c(=O)cc(-c4ccccc4Cl)oc23)[C@H](O)C1 [Alvocidib] (top concentration 10000 nM) | -7.1 |
| Cc1cc2c(C(C)C)c(O)c(O)c(C=O)c2c(O)c1-c1c(C)cc2c(C(C)C)c(O)c(O)c(C=O)c2c1O [AT-101] (top concentration 100000 nM) | 4.58 |
| Cc1ccc(C(=O)Nc2cccc(C(F)(F)F)c2)cc1Nc1nc(-c2cccnc2)nc2c1cnn2C [NVP-BHG712] (top concentration 10000 nM) | 2.98 |
